Laboratory results reported in patent US20160375006A1, “USES OF PARALOG-SELECTIVE INHIBITORS OF GSK3 KINASES” (priority 2012, published 2016).
Where two headings read alike, the source gives them in different places.

Legend:
CDK3/CycE1 = CDK3/CycE1 (Homo sapiens, UniProt Q00526)
Experimental: (§1) This was completed utilizing one of two assays depending on the kinase being examined.
(§2) A solution of IMAP binding reagent (IMAP Screening Express kit; Molecular Devices) (60 μL) was added to each well and incubated for 30 minutes.
(§3) A solution of termination buffer (QuickScout Screening assist MSA; Carna Biosciences) (60 μL) was added to each well. The entire reaction mixture was then applied to a LabChip3000 system (Caliper Life Science) and the product and substrate peptide peaks were separated and quantified.
(§4) The assay utilized was identical to that of the single point inhibitory activity determination (MSA) but run in dose response. […] A solution of termination buffer (QuickScout Screening assist MSA; Carna Biosciences) (60 μL) was added to each well. The entire reaction mixture was then applied to a LabChip3000 system (Caliper Life Science) and the product and substrate peptide peaks were separated and quantified.

FER = FER (Homo sapiens, UniProt P16591)
Experimental: as §1, §2, §3

MAP3K3_Cascade = MAP3K3_Cascade (Homo sapiens, UniProt Q99759)
Experimental: as §1, §3
The assay utilized was identical to that of the single point inhibitory activity determination (MSA) but run in dose response.

PKACβ = PKACβ (Homo sapiens, UniProt P22694)
Experimental: as §1, §2, §3, §4

EPHA2 = EPHA2 (Homo sapiens, UniProt P29317)
Experimental: as §1, §2, §3, §4

IRAK1 = IRAK1 (Homo sapiens, UniProt P51617)
Experimental: as §1, §2, §3, §4

CK2α2/β = CK2α2/β (Homo sapiens, UniProt P19784)
Experimental: as §1, §2, §3, §4

RSK2 = RSK2 (Homo sapiens, UniProt P51812)
Experimental: as §1, §2, §3, §4

MAPKAPK3 = MAPKAPK3 (Homo sapiens, UniProt Q16644)
Experimental: as §1, §2, §3, §4

ABL(T315I) = ABL(T315I) (Homo sapiens, UniProt P00519, T315I)
Experimental: as §1, §2, §3, §4

EGFR(L861Q) = EGFR(L861Q) (Homo sapiens, UniProt P00533, L861Q)
Experimental: as §1, §2, §3, §4

RET = RET (Homo sapiens, UniProt P07949)
Experimental: as §1, §2, §3

FMS = FMS (Homo sapiens, UniProt P07333)
Experimental: as §1, §2, §3, §4

WNK3 = WNK3 (Homo sapiens, UniProt Q9BYP7)
Experimental: as §1, §2, §3, §4

EEF2K = EEF2K (Homo sapiens, UniProt O00418)
Experimental: as §1, §2, §3

CLK2 = CLK2 (Homo sapiens, UniProt P49760)
Experimental: as §1, §2, §3, §4

FGFR3(K650M) = FGFR3(K650M) (Homo sapiens, UniProt P22607, K650M)
Experimental: as §2, §3, §4

TBK1 = TBK1 (Homo sapiens, UniProt Q9UHD2)
Experimental: as §1, §2, §3

LTK = LTK (Homo sapiens, UniProt P29376)
Experimental: as §1, §2, §3, §4

PKD3 = PKD3 (Homo sapiens, UniProt O94806)
Experimental: as §1, §2, §3

FLT3 = FLT3 (Homo sapiens, UniProt P36888)
Erk2 = Erk2 (Homo sapiens, UniProt P28482)
Experimental: as §1, §2, §3

QIK = QIK (Homo sapiens, UniProt Q9H0K1)
Experimental: as §1, §2, §3, §4

JAK2 = JAK2 (Homo sapiens, UniProt O60674)
Experimental: as §1, §2, §3, §4

PAK1 = PAK1 (Homo sapiens, UniProt Q13153)
Experimental: as §2, §3, §4

PIM3 = PIM3 (Homo sapiens, UniProt Q86V86)
Experimental: as §1, §2, §3

CaMK4 = CaMK4 (Homo sapiens, UniProt Q16566)
Experimental: as §1, §2, §3, §4

AXL = AXL (Homo sapiens, UniProt P30530)
Experimental: as §1, §2, §3

MARK4 = MARK4 (Homo sapiens, UniProt Q96L34)
Experimental: as §1, §2, §3, §4

FGR = FGR (Homo sapiens, UniProt P09769)
Experimental: as §1, §2, §3, §4

SPHK1 = SPHK1 (Homo sapiens, UniProt Q9NYA1)
Experimental: as §1, §2, §3, §4

MAP2K1_Cascade = MAP2K1_Cascade (Homo sapiens, UniProt Q02750)
Experimental: as §1, §2, §3, §4

KIT(V654A) = KIT(V654A) (Homo sapiens, UniProt P10721, V654A)
Experimental: as §1, §2, §3, §4

CaMK2γ = CaMK2γ (Homo sapiens, UniProt Q13555)
Experimental: as §1, §2, §3, §4

CK2α1/β = CK2α1/β (Homo sapiens, UniProt P68400)
Experimental: as §1, §2, §3, §4

RSK4 = RSK4 (Homo sapiens, UniProt Q9UK32)
Experimental: as §1, §2, §3

TRKA = TRKA (Homo sapiens, UniProt P04629)
Experimental: as §1, §2, §3, §4

MAP2K4_Cascade = MAP2K4_Cascade (Homo sapiens, UniProt P45985)
Experimental: as §1, §2, §3, §4

p70S6Kβ = p70S6Kβ (Homo sapiens, UniProt Q9UBS0)
Experimental: as §1, §2, §3, §4

TSSK3 = TSSK3 (Homo sapiens, UniProt Q96PN8)
Experimental: as §1, §2, §3, §4

Chain of CDK3/CycE1 (Q00526 whole entry): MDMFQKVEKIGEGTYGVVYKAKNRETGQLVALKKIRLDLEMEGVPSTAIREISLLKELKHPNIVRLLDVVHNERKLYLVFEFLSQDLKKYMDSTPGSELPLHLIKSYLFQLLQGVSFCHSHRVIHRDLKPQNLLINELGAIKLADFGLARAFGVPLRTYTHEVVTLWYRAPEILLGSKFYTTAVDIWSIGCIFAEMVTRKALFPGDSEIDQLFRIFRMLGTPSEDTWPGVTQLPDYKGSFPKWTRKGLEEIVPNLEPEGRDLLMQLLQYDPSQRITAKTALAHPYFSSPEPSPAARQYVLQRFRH
Chain of CDK3/CycE1 (P24864 whole entry partner): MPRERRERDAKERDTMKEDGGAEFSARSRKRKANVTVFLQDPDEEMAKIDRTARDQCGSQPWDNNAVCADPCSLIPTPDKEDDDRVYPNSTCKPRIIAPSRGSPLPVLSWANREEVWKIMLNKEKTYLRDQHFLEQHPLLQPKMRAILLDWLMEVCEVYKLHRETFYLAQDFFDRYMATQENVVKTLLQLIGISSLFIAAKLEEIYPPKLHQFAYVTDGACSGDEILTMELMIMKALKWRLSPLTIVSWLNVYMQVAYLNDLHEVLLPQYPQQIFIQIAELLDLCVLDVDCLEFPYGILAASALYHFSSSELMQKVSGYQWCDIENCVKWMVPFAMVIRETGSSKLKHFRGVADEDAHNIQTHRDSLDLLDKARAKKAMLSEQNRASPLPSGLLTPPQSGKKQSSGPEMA
Chain of TBK1 (Q9UHD2 whole entry): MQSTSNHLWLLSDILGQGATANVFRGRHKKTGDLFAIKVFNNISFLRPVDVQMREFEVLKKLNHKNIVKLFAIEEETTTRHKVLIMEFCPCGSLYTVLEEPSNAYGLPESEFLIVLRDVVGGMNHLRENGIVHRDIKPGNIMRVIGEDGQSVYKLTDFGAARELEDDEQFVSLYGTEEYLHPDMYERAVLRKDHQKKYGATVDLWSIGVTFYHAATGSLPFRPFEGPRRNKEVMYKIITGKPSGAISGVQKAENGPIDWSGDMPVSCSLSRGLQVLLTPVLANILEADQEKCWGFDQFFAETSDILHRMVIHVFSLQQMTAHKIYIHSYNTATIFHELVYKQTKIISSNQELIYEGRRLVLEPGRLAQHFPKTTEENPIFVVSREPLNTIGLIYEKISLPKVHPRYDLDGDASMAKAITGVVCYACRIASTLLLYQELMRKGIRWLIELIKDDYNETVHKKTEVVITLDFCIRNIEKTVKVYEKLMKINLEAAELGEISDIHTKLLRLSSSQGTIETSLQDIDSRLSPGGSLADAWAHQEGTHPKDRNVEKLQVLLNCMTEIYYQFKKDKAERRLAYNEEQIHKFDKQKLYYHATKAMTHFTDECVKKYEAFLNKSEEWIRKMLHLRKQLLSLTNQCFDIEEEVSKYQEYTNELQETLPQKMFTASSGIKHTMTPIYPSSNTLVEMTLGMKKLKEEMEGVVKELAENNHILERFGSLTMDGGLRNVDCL
Chain of FGR (P09769 whole entry): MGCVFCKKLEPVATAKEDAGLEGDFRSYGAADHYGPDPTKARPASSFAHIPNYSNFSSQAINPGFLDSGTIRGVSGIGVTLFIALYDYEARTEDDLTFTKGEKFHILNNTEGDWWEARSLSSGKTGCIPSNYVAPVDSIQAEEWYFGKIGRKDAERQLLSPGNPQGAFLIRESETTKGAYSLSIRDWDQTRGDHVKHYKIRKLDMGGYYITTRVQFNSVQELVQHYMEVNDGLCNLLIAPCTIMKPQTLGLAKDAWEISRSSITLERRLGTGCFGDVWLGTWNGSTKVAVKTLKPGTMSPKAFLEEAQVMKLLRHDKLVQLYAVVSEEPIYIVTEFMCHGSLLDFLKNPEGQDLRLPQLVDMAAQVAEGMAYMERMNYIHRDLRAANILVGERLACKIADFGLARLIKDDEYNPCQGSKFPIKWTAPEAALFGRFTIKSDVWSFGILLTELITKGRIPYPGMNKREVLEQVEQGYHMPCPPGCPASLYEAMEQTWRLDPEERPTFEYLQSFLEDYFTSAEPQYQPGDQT
Chain of FGFR3(K650M) (P22607 23-806 K650M): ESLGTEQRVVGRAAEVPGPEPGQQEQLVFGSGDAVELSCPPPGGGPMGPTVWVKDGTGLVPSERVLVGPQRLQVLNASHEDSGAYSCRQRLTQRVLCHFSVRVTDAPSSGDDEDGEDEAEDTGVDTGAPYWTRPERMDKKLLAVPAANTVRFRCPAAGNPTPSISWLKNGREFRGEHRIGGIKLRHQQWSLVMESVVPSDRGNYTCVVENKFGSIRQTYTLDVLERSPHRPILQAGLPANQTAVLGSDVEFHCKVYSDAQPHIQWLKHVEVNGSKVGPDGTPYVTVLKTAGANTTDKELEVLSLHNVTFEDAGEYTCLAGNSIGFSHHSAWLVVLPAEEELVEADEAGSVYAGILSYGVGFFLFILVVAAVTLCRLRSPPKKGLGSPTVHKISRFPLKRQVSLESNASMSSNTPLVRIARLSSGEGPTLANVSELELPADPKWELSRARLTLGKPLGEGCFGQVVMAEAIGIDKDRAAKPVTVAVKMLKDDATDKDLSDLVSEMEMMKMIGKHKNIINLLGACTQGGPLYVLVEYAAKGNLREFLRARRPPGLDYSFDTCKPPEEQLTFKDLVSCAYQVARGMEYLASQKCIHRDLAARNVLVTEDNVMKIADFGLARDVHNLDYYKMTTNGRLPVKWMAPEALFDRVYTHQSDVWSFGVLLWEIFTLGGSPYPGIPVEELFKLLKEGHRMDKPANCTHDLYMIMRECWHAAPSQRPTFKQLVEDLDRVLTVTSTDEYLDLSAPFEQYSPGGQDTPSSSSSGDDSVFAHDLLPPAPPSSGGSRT
Chain of AXL (P30530 26-894): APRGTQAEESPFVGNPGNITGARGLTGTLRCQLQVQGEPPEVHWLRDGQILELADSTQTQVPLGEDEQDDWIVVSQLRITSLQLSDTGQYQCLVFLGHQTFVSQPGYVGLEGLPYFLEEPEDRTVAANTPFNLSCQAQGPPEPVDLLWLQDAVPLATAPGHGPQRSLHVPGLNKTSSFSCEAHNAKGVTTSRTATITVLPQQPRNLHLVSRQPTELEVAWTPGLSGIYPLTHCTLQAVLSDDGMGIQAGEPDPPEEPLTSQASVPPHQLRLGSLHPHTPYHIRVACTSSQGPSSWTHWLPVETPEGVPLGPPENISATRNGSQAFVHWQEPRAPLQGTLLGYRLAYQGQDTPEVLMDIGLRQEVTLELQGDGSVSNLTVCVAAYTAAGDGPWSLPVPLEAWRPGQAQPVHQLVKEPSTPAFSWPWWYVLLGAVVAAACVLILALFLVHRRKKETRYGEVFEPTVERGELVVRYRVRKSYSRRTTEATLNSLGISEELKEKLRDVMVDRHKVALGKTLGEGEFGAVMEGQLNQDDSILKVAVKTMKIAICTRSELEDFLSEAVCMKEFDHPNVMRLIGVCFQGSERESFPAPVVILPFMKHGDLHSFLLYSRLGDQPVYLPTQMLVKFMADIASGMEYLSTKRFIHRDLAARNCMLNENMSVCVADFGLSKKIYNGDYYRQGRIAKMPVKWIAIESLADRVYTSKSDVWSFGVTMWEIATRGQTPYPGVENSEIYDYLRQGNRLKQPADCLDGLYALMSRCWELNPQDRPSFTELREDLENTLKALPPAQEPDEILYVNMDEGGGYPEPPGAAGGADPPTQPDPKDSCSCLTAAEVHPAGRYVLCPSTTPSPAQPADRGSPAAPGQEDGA
Chain of p70S6Kβ (Q9UBS0 whole entry): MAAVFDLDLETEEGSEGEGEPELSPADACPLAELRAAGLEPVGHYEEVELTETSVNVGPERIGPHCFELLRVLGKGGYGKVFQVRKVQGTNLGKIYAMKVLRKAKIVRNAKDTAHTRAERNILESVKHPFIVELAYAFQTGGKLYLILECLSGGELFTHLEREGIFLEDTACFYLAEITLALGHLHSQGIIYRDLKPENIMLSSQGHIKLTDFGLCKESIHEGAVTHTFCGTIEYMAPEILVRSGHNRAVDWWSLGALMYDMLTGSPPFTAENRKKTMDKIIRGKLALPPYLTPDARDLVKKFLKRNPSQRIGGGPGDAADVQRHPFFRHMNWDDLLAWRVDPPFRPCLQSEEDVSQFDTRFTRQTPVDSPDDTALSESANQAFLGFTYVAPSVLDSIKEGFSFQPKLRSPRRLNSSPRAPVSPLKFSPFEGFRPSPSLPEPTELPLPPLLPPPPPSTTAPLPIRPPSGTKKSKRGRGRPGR
Chain of IRAK1 (P51617 whole entry): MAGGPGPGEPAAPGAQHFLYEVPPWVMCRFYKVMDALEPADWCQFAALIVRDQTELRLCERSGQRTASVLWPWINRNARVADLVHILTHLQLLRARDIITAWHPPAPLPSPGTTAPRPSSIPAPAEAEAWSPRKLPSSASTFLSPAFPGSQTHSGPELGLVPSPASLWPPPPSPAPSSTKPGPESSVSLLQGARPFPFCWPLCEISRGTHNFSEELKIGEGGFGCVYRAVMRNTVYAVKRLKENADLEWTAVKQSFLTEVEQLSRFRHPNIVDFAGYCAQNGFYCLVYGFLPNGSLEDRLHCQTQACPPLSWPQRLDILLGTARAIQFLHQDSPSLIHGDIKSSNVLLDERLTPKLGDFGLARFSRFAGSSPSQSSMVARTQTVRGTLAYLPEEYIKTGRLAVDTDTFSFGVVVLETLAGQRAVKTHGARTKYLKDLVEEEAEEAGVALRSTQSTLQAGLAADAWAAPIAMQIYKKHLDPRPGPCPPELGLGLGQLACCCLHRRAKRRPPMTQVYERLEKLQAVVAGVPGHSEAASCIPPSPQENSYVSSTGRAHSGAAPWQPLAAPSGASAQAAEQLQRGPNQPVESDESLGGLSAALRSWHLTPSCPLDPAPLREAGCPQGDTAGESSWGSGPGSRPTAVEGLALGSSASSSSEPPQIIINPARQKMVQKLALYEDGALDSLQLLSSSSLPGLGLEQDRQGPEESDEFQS

For CC(C)(C)Cc1[nH]nc2c1[C@](C)(c1ccccc1)C1=C(CC(C)(C)CC1=O)N2 [BRD3731], the IC50 (CDK3/CycE1; CDK3/CycE1) was over 10 µM, the “% Inhibition 10 μM” value (CDK3/CycE1; CDK3/CycE1, 10 μM) was 29.2% and the “Fold Selectivity” value (CDK3/CycE1; IC50 CDK3/CycE1 / IC50 GSK3β) was over 370 fold. The “% Inhibition 10 μM” value (FER; 10 μM) was 6.4%, the “% Inhibition 10 μM” value (MAP3K3_Cascade; 10 μM) was 1.8% and the “% Inhibition 10 μM” value (PKACβ; 10 μM) was 9.3%. For the same compound, the “% Inhibition 10 μM” value (EPHA2; 10 μM) was 3.2%, the “% Inhibition 10 μM” value (IRAK1; 10 μM) was 1.2% and the “% Inhibition 10 μM” value (CK2α2/β; 10 μM) was −2.3%. The “% Inhibition 10 μM” value (RSK2; 10 μM) was 42.8%, the “% Inhibition 10 μM” value (MAPKAPK3; 10 μM) was 6.0% and the “% Inhibition 10 μM” value (ABL(T315I); 10 μM) was −2.4%. The “% Inhibition 10 μM” value (EGFR(L861Q); 10 μM) was 2.7%, the “% Inhibition 10 μM” value (RET; 10 μM) was 3.0% and the “% Inhibition 10 μM” value (FMS; 10 μM) was 5.2%. For the same compound, the “% Inhibition 10 μM” value (WNK3; 10 μM) was 2.1%, the “% Inhibition 10 μM” value (EEF2K; 10 μM) was 3.9% and the “% Inhibition 10 μM” value (CLK2; 10 μM) was 6.1%. The “% Inhibition 10 μM” value (FGFR3(K650M); 10 μM) was 0.8%, the “% Inhibition 10 μM” value (TBK1; 10 μM) was −0.5% and the “% Inhibition 10 μM” value (LTK; 10 μM) was −3.5%. The “% Inhibition 10 μM” value (PKD3; 10 μM) was 2.6%, the “% Inhibition 10 μM” value (FLT3; 10 μM) was 13.8% and the “% Inhibition 10 μM” value (Erk2; 10 μM) was 0.9%. The “% Inhibition 10 μM” value (QIK; 10 μM) was −4.1%, the “% Inhibition 10 μM” value (JAK2; 10 μM) was 3.0% and the “% Inhibition 10 μM” value (PAK1; 10 μM) was −18.6%. For the same compound, the “% Inhibition 10 μM” value (PIM3; 10 μM) was 13.1%, the “% Inhibition 10 μM” value (CaMK4; 10 μM) was 12.4% and the “% Inhibition 10 μM” value (AXL; 10 μM) was 3.8%. For the same compound, the “% Inhibition 10 μM” value (MARK4; 10 μM) was 22.7%, the “% Inhibition 10 μM” value (FGR; 10 μM) was 12.0% and the “% Inhibition 10 μM” value (SPHK1; 10 μM) was 3.4%. For the same compound, the “% Inhibition 10 μM” value (MAP2K1_Cascade; 10 μM) was 3.1%, the “% Inhibition 10 μM” value (KIT(V654A); 10 μM) was −1.9% and the “% Inhibition 10 μM” value (CaMK2γ; 10 μM) was −1.2%. For the same compound, the “% Inhibition 10 μM” value (CK2α1/β; 10 μM) was −2.1%, the “% Inhibition 10 μM” value (RSK4; 10 μM) was 33.9% and the “% Inhibition 10 μM” value (TRKA; 10 μM) was 12.0%. For the same compound, the “% Inhibition 10 μM” value (MAP2K4_Cascade; 10 μM) was 7.6%, the “% Inhibition 10 μM” value (p70S6Kβ; 10 μM) was 12.6% and the “% Inhibition 10 μM” value (TSSK3; 10 μM) was 33.6%.
For CC[C@@]1(c2ccccc2)C2=C(CC(C)(C)CC2=O)Nc2n[nH]cc21 [BRD0705], the “% Inhibition at 10 μM” value (CDK3/CycE1; CDK3/CycE1) was 52.8%, the IC50 (CDK3/CycE1; read-out: IC50 CDK3/CycE1) was 9.74 µM and the “% Inhibition at 10 μM” value (FER) was 1.7%. The “% Inhibition at 10 μM” value (MAP3K3_Cascade) was 5.6%, the “% Inhibition at 10 μM” value (PKACβ) was −7.7% and the “% Inhibition at 10 μM” value (EPHA2) was −2.6%. For the same compound, the “% Inhibition at 10 μM” value (IRAK1) was 3.1%, the “% Inhibition at 10 μM” value (CK2α2/β) was −7.0% and the “% Inhibition at 10 μM” value (RSK2) was 0.4%. For the same compound, the “% Inhibition at 10 μM” value (MAPKAPK3) was −8.3%, the “% Inhibition at 10 μM” value (ABL(T315I)) was 0.7% and the “% Inhibition at 10 μM” value (EGFR(L861Q)) was −1.8%. For the same compound, the “% Inhibition at 10 μM” value (RET) was −5.6%, the “% Inhibition at 10 μM” value (FMS) was −8.2% and the “% Inhibition at 10 μM” value (WNK3) was −3.7%. For the same compound, the “% Inhibition at 10 μM” value (EEF2K) was −6.4%, the “% Inhibition at 10 μM” value (CLK2) was −3.0% and the “% Inhibition at 10 μM” value (FGFR3(K650M)) was −2.7%. For the same compound, the “% Inhibition at 10 μM” value (TBK1) was 1.7%, the “% Inhibition at 10 μM” value (LTK) was −3.6% and the “% Inhibition at 10 μM” value (PKD3) was 3.9%. The “% Inhibition at 10 μM” value (FLT3) was 25.0%, the “% Inhibition at 10 μM” value (Erk2) was 1.6% and the “% Inhibition at 10 μM” value (QIK) was −6.4%. For the same compound, the “% Inhibition at 10 μM” value (JAK2) was −0.5%, the “% Inhibition at 10 μM” value (PAK1) was −2.9% and the “% Inhibition at 10 μM” value (PIM3) was 1.2%. The “% Inhibition at 10 μM” value (CaMK4) was −7.1%, the “% Inhibition at 10 μM” value (AXL) was 3.7% and the “% Inhibition at 10 μM” value (MARK4) was 2.0%. The “% Inhibition at 10 μM” value (FGR) was −3.4%, the “% Inhibition at 10 μM” value (SPHK1) was −20.5% and the “% Inhibition at 10 μM” value (MAP2K1_Cascade) was 3.0%. For the same compound, the “% Inhibition at 10 μM” value (KIT(V654A)) was −1.0%, the “% Inhibition at 10 μM” value (CaMK2γ) was −4.7% and the “% Inhibition at 10 μM” value (CK2α1/β) was −6.0%. For the same compound, the “% Inhibition at 10 μM” value (RSK4) was 1.1%, the “% Inhibition at 10 μM” value (TRKA) was 2.9% and the “% Inhibition at 10 μM” value (MAP2K4_Cascade) was −3.0%. The “% Inhibition at 10 μM” value (p70S6Kβ) was −2.1% and the “% Inhibition at 10 μM” value (TSSK3) was 3.5%.
